Measurements published in the NIST ThermoML archive (doi:10.1021/je901020a).
± gives the expanded uncertainty stated by the source.

Tests used:
[1] = xn = mol fraction of the nth substance listed; settings: 101 kPa, Liquid; for speed of sound: Pulse-echo method
[2] = refractive index (Na D-line) (dimensionless); xn = mol fraction of the nth substance listed; settings: 101 kPa, Liquid, Standard Abbe refractometry

C1CCCC1 [cyclopentane] + Cc1ccc(C)cc1
Settings | mass density, [1] [kg/m3] | refractive index, [2] | speed of sound, [1] [m/s]
298.15 K, x1 = 0.0462 | 852.5 ± 0.5 | 1.49015 ± 0.0011 | 1305 ± 2
298.15 K, x1 = 0.0885 | 848.7 ± 0.5 | 1.48707 ± 0.0011 | 1300 ± 2
298.15 K, x1 = 0.1848 | 839.6 ± 0.5 | 1.48001 ± 0.0011 | 1289 ± 2
298.15 K, x1 = 0.2886 | 829.3 ± 0.5 | 1.47236 ± 0.0011 | 1277 ± 2
298.15 K, x1 = 0.3869 | 818.8 ± 0.5 | 1.46445 ± 0.0011 | 1266 ± 2
298.15 K, x1 = 0.4744 | 809 ± 0.6 | 1.45737 ± 0.0011 | 1256 ± 2
298.15 K, x1 = 0.5886 | 795.1 ± 0.6 | 1.44669 ± 0.0011 | 1244 ± 2
298.15 K, x1 = 0.6913 | 782.2 ± 0.6 | 1.4372 ± 0.0011 | 1233 ± 2
298.15 K, x1 = 0.7923 | 768.9 ± 0.6 | 1.42618 ± 0.0011 | 1223 ± 2
298.15 K, x1 = 0.8935 | 755 ± 0.6 | 1.41575 ± 0.0011 | 1213 ± 2
298.15 K, x1 = 0.9471 | 747.4 ± 0.6 | 1.40916 ± 0.0011 | 1208 ± 2
298.15 K, x1 = 1 | 740 ± 0.6 | 1.40292 ± 0.001 | 1204 ± 2
313.15 K, x1 = 0.0443 | 839.7 ± 0.5 | 1.48224 ± 0.001 | 1243 ± 2
313.15 K, x1 = 0.0981 | 834.8 ± 0.5 | 1.47862 ± 0.001 | 1236 ± 2
313.15 K, x1 = 0.2012 | 824.7 ± 0.5 | 1.47117 ± 0.00099 | 1224 ± 2
313.15 K, x1 = 0.2998 | 814.5 ± 0.5 | 1.46343 ± 0.00095 | 1211 ± 2
313.15 K, x1 = 0.3542 | 808.5 ± 0.6 | 1.4589 ± 0.00092 | 1204 ± 2
313.15 K, x1 = 0.4799 | 794.3 ± 0.6 | 1.44816 ± 0.00089 | 1189 ± 2
313.15 K, x1 = 0.6021 | 779.4 ± 0.6 | 1.43702 ± 0.00087 | 1173 ± 2
313.15 K, x1 = 0.703 | 766.4 ± 0.6 | 1.42761 ± 0.0009 | 1161 ± 2
313.15 K, x1 = 0.8072 | 752.3 ± 0.6 | 1.41693 ± 0.0011 | 1149 ± 2
313.15 K, x1 = 0.909 | 737.9 ± 0.6 | 1.4057 ± 0.0014 | 1138 ± 2
313.15 K, x1 = 0.9601 | 730.6 ± 0.7 | 1.39936 ± 0.0018 | 1133 ± 2
313.15 K, x1 = 1 | 725 ± 0.7 | 1.39456 ± 0.001 | 1130 ± 2

C1CCCC1 [cyclopentane] + Cc1ccccc1C
Settings | mass density, [1] [kg/m3] | refractive index, [2] | speed of sound, [1] [m/s]
298.15 K, x1 = 0.045 | 870.7 ± 0.5 | 1.49951 ± 0.0011 | 1342 ± 2
298.15 K, x1 = 0.0924 | 865.7 ± 0.5 | 1.49549 ± 0.001 | 1336 ± 2
298.15 K, x1 = 0.1949 | 854.1 ± 0.5 | 1.48698 ± 0.0011 | 1319 ± 2
298.15 K, x1 = 0.2932 | 842.5 ± 0.5 | 1.4791 ± 0.001 | 1304 ± 2
298.15 K, x1 = 0.3903 | 830.4 ± 0.5 | 1.47003 ± 0.0011 | 1289 ± 2
298.15 K, x1 = 0.4954 | 816.6 ± 0.6 | 1.46059 ± 0.0011 | 1273 ± 2
298.15 K, x1 = 0.594 | 802.9 ± 0.6 | 1.4507 ± 0.0011 | 1259 ± 2
298.15 K, x1 = 0.6958 | 788.1 ± 0.6 | 1.43935 ± 0.0011 | 1244 ± 2
298.15 K, x1 = 0.7939 | 773 ± 0.6 | 1.42832 ± 0.0011 | 1231 ± 2
298.15 K, x1 = 0.8926 | 757.3 ± 0.6 | 1.41649 ± 0.0011 | 1217 ± 2
298.15 K, x1 = 0.9503 | 747.9 ± 0.6 | 1.40949 ± 0.0011 | 1210 ± 2
298.15 K, x1 = 1 | 740 ± 0.6 | 1.40292 ± 0.001 | 1204 ± 2
313.15 K, x1 = 0.072 | 855 ± 0.5 | 1.48922 ± 0.001 | 1277 ± 2
313.15 K, x1 = 0.0931 | 852.7 ± 0.5 | 1.48739 ± 0.001 | 1274 ± 2
313.15 K, x1 = 0.1919 | 841.5 ± 0.5 | 1.47936 ± 0.001 | 1257 ± 2
313.15 K, x1 = 0.2934 | 829.3 ± 0.5 | 1.47048 ± 0.001 | 1241 ± 2
313.15 K, x1 = 0.3772 | 818.8 ± 0.5 | 1.46299 ± 0.00093 | 1227 ± 2
313.15 K, x1 = 0.4855 | 804.6 ± 0.6 | 1.45278 ± 0.00089 | 1209 ± 2
313.15 K, x1 = 0.5894 | 790.1 ± 0.6 | 1.44238 ± 0.00087 | 1192 ± 2
313.15 K, x1 = 0.685 | 776.2 ± 0.6 | 1.43216 ± 0.00092 | 1177 ± 2
313.15 K, x1 = 0.8099 | 756.9 ± 0.6 | 1.41833 ± 0.001 | 1158 ± 2
313.15 K, x1 = 0.8912 | 743.6 ± 0.6 | 1.40862 ± 0.0012 | 1146 ± 2
313.15 K, x1 = 0.9479 | 734.1 ± 0.7 | 1.402 ± 0.0017 | 1138 ± 2
313.15 K, x1 = 1 | 725 ± 0.7 | 1.39456 ± 0.001 | 1130 ± 2

C1CCCCC1 [cyclohexane] + Cc1cccc(C)c1
x1 = 1
Settings | mass density, [1] [kg/m3] | refractive index, [2] | speed of sound, [1] [m/s]
298.15 K | 773.9 ± 0.5 | 1.4236 ± 0.00064 | 1255 ± 2
313.15 K | 759.59 ± 0.5 | 1.41516 ± 0.00064 | 1182 ± 2

Cc1ccc(C)cc1 [1,4-dimethylbenzene] + C1CCCC1
x2 = 0
Settings | mass density, [1] [kg/m3] | refractive index, [2] | speed of sound, [1] [m/s]
298.15 K | 856.6 ± 0.5 | 1.49312 ± 0.001 | 1310 ± 2
313.15 K | 843.5 ± 0.5 | 1.48444 ± 0.001 | 1248 ± 2

Cc1ccc(C)cc1 [1,4-dimethylbenzene] + CC1CCCCC1
x2 = 0
Settings | mass density, [1] [kg/m3] | refractive index, [2] | speed of sound, [1] [m/s]
298.15 K | 856.6 ± 0.5 | 1.49312 ± 0.001 | 1310 ± 2
313.15 K | 843.5 ± 0.5 | 1.48444 ± 0.001 | 1248 ± 2

Cc1ccccc1C [1,2-dimethylbenzene] + C1CCCCCCC1
x2 = 0
Settings | mass density, [1] [kg/m3] | refractive index, [2] | speed of sound, [1] [m/s]
298.15 K | 875.4 ± 0.5 | 1.50262 ± 0.00065 | 1350 ± 2
313.15 K | 862.9 ± 0.5 | 1.49466 ± 0.00065 | 1289 ± 2

C1CCCCC1 [cyclohexane] + Cc1cc(C)cc(C)c1
x1 = 1
Settings | mass density, [1] [kg/m3] | refractive index, [2] | speed of sound, [1] [m/s]
298.15 K | 773.9 ± 0.5 | 1.4236 ± 0.00064 | 1255 ± 2
313.15 K | 759.6 ± 0.5 | 1.41516 ± 0.00064 | 1182 ± 2
